# Data published in patent US9504729B2, “Antiangiogenic small molecules and methods of use” (The United States of America, as represented by the …, priority 2009, dated 2016).
# System: angiogenesis genes in dermal microvascular endothelial cells
# Assay: Real time RT-PCR of angiogenesis gene expression during endothelial tube formation
# Assay type: cell-based
# Conditions: 1 μM SM, 24 hours
# Protocol: For gene expression studies, three independent experiments were run for each SM tested. 90.000 cells/well (6 wells/treatment) of dermal microvascular endothelial cells (Lonza, Walkersville, Md.) were seeded on polymerized GELTREX™ gel matrix (Invitrogen, Carlsbad, Calif.) in 24 well plates. Wells were immediately treated with the same volume of 1 μM SM or PBS. After 24 hours incubation at 37° C. and 5% CO2, cells were extracted using Cell Recovery Solution (BD Biosciences, San Jose, Calif., Cat. #354253). Total RNA was extracted with the RNeasy Mini Kit (Qiagen, Valencia, Calif., Cat. #74104), and retrotranscribed using […]® First-Strand reverse transcriptase (Invitrogen, Carlsbad, Calif., Cat. #11904-018). The real time PCR reactions were performed in an Opticon 2 cycler (MJ Research, Waltham, Mass.). Amplification was performed in a final volume of 25 μl, containing 2 μl cDNA (1:10 dilution from the reversed transcribed reaction) and 2 μl of primer mixture (10 μM each of forward and reverse primers). Samples were amplified as follows: after initial denaturation at 95 C for 2 minutes, reactions were run for 46 cycles at 95° C. for 30 seconds, 60° C. for 30 seconds, and 72° C. for 45 seconds. Fluorescence was measured in every cycle and a melting curve was run after the PCR by increasing temperature from 50 to 96° C. (in 0.5° C. increments). A defined single peak was obtained for all amplicons, thus confirming the specificity of the amplification.
# The genes that were monitored were selected based on their relevance to the angiogenesis process. All experiments were done in triplicate. The results are shown in the volcano plots of FIG. 17. Log 2 fold-change is presented in the X-axis and log 10 P value in the Y-axis.
smiles,measurement,setting,value
COC(=O)C1CC(=O)C(C(=O)OC)CC1=O (centres unmarked) [Compound 122567],Log2 fold-change of gene expression: 1839,,1.0
same,Log2 fold-change of gene expression: 4247,,0.3
same,Log2 fold-change of gene expression: 5569,,0.8
same,Log2 fold-change of gene expression: 8131,,0.1
same,Log2 fold-change of gene expression: 9569,,−2.2
same,Log2 fold-change of gene expression: 10988,,1.2
same,Log2 fold-change of gene expression: 23001,,−0.5
same,Log2 fold-change of gene expression: 55332,,−1.0
same,Log2 fold-change of gene expression: 57722,,0.1
same,Log2 fold-change of gene expression: 58488,,1.5
same,Log2 fold-change of gene expression: 90780,,−1.9
same,Log2 fold-change of gene expression: 134265,,−0.2
same,Log2 fold-change of gene expression: AKT1,,−1.6
same,Log2 fold-change of gene expression: ANGPT1,,1.6
same,Log2 fold-change of gene expression: ANGPT2,,−0.9
same,Log2 fold-change of gene expression: ANGPTL3,,−1.7
same,Log2 fold-change of gene expression: ANGPTL4,,−0.4
same,Log2 fold-change of gene expression: ANPEP,,−1.2
same,Log2 fold-change of gene expression: ANTXR1,,−3.5
same,Log2 fold-change of gene expression: APOE,,0.8
same,Log2 fold-change of gene expression: ARHGEF1,,−5.0
same,Log2 fold-change of gene expression: Acvrl1,,−1.3
same,Log2 fold-change of gene expression: Adcy4,,−0.4
same,Log2 fold-change of gene expression: BAL1,,0.2
same,Log2 fold-change of gene expression: BMP1,,0.9
same,Log2 fold-change of gene expression: C1orf54,,−3.4
same,Log2 fold-change of gene expression: CALD1,,2.3
same,Log2 fold-change of gene expression: CCL2,,2.5
same,Log2 fold-change of gene expression: CCL11,,0.6
same,Log2 fold-change of gene expression: CD248,,1.2
same,Log2 fold-change of gene expression: CDH5,,−1.9
same,Log2 fold-change of gene expression: CENTD3,,1.1
same,Log2 fold-change of gene expression: CLIC1,,0.9
same,Log2 fold-change of gene expression: COL4A3,,1.9
same,Log2 fold-change of gene expression: COL18A1,,1.6
same,Log2 fold-change of gene expression: COMT,,−1.5
same,Log2 fold-change of gene expression: CST4,,1.3
same,Log2 fold-change of gene expression: CTTNBP2NL,,−0.9
same,Log2 fold-change of gene expression: CXCL3,,4.0
same,Log2 fold-change of gene expression: CXCL5,,4.3
same,Log2 fold-change of gene expression: CXCL6,,1.1
same,Log2 fold-change of gene expression: CXCL9,,1.6
same,Log2 fold-change of gene expression: CXCL10,,3.7
same,Log2 fold-change of gene expression: Calcr1,,−4.0
same,Log2 fold-change of gene expression: Caskin2,,−2.3
same,Log2 fold-change of gene expression: Ccbp2,,1.4
same,Log2 fold-change of gene expression: Cldn5,,0.0
same,Log2 fold-change of gene expression: DGKG,,2.0
same,Log2 fold-change of gene expression: DKK3,,−1.9
same,Log2 fold-change of gene expression: DLL4,,−8.7
same,Log2 fold-change of gene expression: DUT,,−1.8
same,Log2 fold-change of gene expression: EFNA1,,−0.3
same,Log2 fold-change of gene expression: EFNA3,,−0.4
same,Log2 fold-change of gene expression: EFNB2,,−4.0
same,Log2 fold-change of gene expression: EGF,,−0.3
same,Log2 fold-change of gene expression: ENG,,−1.7
same,Log2 fold-change of gene expression: EPHB4,,−0.5
same,Log2 fold-change of gene expression: EREG,,1.9
same,Log2 fold-change of gene expression: ESAM1,,−2.9
same,Log2 fold-change of gene expression: EXTL3,,0.3
same,Log2 fold-change of gene expression: Egf17,,−2.6
same,Log2 fold-change of gene expression: Ehd4,,−0.8
same,Log2 fold-change of gene expression: Entpd1,,−0.3
same,Log2 fold-change of gene expression: Epas1,,0.9
same,Log2 fold-change of gene expression: EphB1,,0.8
same,Log2 fold-change of gene expression: Erg,,2.4
same,Log2 fold-change of gene expression: FGF1,,1.9
same,Log2 fold-change of gene expression: FGF2,,−0.7
same,Log2 fold-change of gene expression: FGFR3,,1.2
same,Log2 fold-change of gene expression: FIGF,,−0.1
same,Log2 fold-change of gene expression: FLT1,,−4.4
same,Log2 fold-change of gene expression: Fgd5,,−1.5
same,Log2 fold-change of gene expression: GPCR124,,−3.7
same,Log2 fold-change of gene expression: GRRP1,,−0.3
same,Log2 fold-change of gene expression: Grp116,,−2.3
same,Log2 fold-change of gene expression: HAND2,,0.4
same,Log2 fold-change of gene expression: HGF,,1.3
same,Log2 fold-change of gene expression: HIF1A,,−3.1
same,Log2 fold-change of gene expression: HPSE,,−8.3
same,Log2 fold-change of gene expression: Hspa12b,,−3.4
same,Log2 fold-change of gene expression: ID1,,−0.2
same,Log2 fold-change of gene expression: ID3,,−0.3
same,Log2 fold-change of gene expression: IFNA1,,1.1
same,Log2 fold-change of gene expression: IFNB1,,1.2
same,Log2 fold-change of gene expression: IFNG,,8.3
same,Log2 fold-change of gene expression: IGF1,,−0.1
same,Log2 fold-change of gene expression: IL1B,,−0.1
same,Log2 fold-change of gene expression: IL6,,14.4
same,Log2 fold-change of gene expression: IL8,,7.4
same,Log2 fold-change of gene expression: ITGAV,,−2.7
same,Log2 fold-change of gene expression: ITGB3,,−1.4
same,Log2 fold-change of gene expression: Icam1,,0.0
same,Log2 fold-change of gene expression: Icam2,,0.1
same,Log2 fold-change of gene expression: JAG1,,0.6
same,Log2 fold-change of gene expression: KDR,,−2.3
same,Log2 fold-change of gene expression: Kifc1,,1.1
same,Log2 fold-change of gene expression: LAMAS5,,−1.1
same,Log2 fold-change of gene expression: LECT1,,0.3
same,Log2 fold-change of gene expression: LEP,,0.2
same,Log2 fold-change of gene expression: Lasts2,,4.8
same,Log2 fold-change of gene expression: Lrrk1,,−0.5
same,Log2 fold-change of gene expression: MDK,,−0.9
same,Log2 fold-change of gene expression: MMP2,,0.3
same,Log2 fold-change of gene expression: MMP9,,0.9
same,Log2 fold-change of gene expression: MMP11,,1.3
same,Log2 fold-change of gene expression: MRC2,,0.7
same,Log2 fold-change of gene expression: Mmm2,,−3.5
same,Log2 fold-change of gene expression: Myo1b,,−2.9
same,Log2 fold-change of gene expression: NID1,,−6.3
same,Log2 fold-change of gene expression: NM023516,,0.2
same,Log2 fold-change of gene expression: NRP1,,−3.0
same,Log2 fold-change of gene expression: NRP2,,−4.3
same,Log2 fold-change of gene expression: Notch4,,−1.1
same,Log2 fold-change of gene expression: Npr3,,1.5
same,Log2 fold-change of gene expression: PALD,,−0.5
same,Log2 fold-change of gene expression: PDCD2,,−0.4
same,Log2 fold-change of gene expression: PDGFA,,−1.7
same,Log2 fold-change of gene expression: PECAM1,,−2.7
same,Log2 fold-change of gene expression: PGF,,−4.9
same,Log2 fold-change of gene expression: PLAU,,−0.1
same,Log2 fold-change of gene expression: PLG,,−1.5
same,Log2 fold-change of gene expression: PNMT,,1.1
same,Log2 fold-change of gene expression: PROK2,,1.3
same,Log2 fold-change of gene expression: PTGS1,,0.8
same,Log2 fold-change of gene expression: PTPRCAP,,0.0
same,Log2 fold-change of gene expression: Pltp,,1.5
same,Log2 fold-change of gene expression: Ptprb,,0.5
same,Log2 fold-change of gene expression: Ptprm,,−0.4
same,Log2 fold-change of gene expression: RAMP2,,−5.8
same,Log2 fold-change of gene expression: RASD2,,0.5
same,Log2 fold-change of gene expression: Rasip1,,−1.2
same,Log2 fold-change of gene expression: S1PR1,,−0.7
same,Log2 fold-change of gene expression: SERPINF1,,0.2
same,Log2 fold-change of gene expression: SPHK1,,0.9
same,Log2 fold-change of gene expression: STAB1,,−1.7
same,Log2 fold-change of gene expression: Sdc4,,0.4
same,Log2 fold-change of gene expression: Sdpr,,1.6
same,Log2 fold-change of gene expression: Slc43a3,,1.8
same,Log2 fold-change of gene expression: Slco2a1,,−0.6
same,Log2 fold-change of gene expression: TEK,,0.3
same,Log2 fold-change of gene expression: TGFA,,2.0
same,Log2 fold-change of gene expression: TGFB1,,−1.2
same,Log2 fold-change of gene expression: TGFB2,,1.2
same,Log2 fold-change of gene expression: TGFBR1,,1.2
same,Log2 fold-change of gene expression: THBS1,,0.1
same,Log2 fold-change of gene expression: THBS2,,1.2
same,Log2 fold-change of gene expression: THY1,,−9.4
same,Log2 fold-change of gene expression: TIMP1,,−1.4
same,Log2 fold-change of gene expression: TIMP2,,−1.4
same,Log2 fold-change of gene expression: TIMP3,,−4.3
same,Log2 fold-change of gene expression: TNF,,−0.2
same,Log2 fold-change of gene expression: TNS1,,0.0
same,Log2 fold-change of gene expression: TNS3,,2.0
same,Log2 fold-change of gene expression: TRA2B,,−1.6
same,Log2 fold-change of gene expression: TYMP,,−0.3
same,Log2 fold-change of gene expression: VEGFA,,4.9
same,Log2 fold-change of gene expression: VEGFC,,1.8
same,Log2 fold-change of gene expression: VGLL4,,−3.5
same,Log2 fold-change of gene expression: Vwf,,−3.5
same,Log2 fold-change of gene expression: copa,,0.1
same,Log2 fold-change of gene expression: itbp4,,−1.9
same,Log2 fold-change of gene expression: ralb,,0.3
same,Log2 fold-change of gene expression: stard9,,0.5
same,Log2 fold-change of gene expression: B2M,1st listing (r49),0.1
same,Log2 fold-change of gene expression: HPRT1,1st listing (r50),0.0
same,Log2 fold-change of gene expression: RPL13A,1st listing (r51),0.7
same,Log2 fold-change of gene expression: GADPH,1st listing (r52),−0.7
same,Log2 fold-change of gene expression: ACTB,1st listing (r53),−1.0
same,Log2 fold-change of gene expression: PLXDC1,1st listing (r74),0.7
same,Log2 fold-change of gene expression: TNFAIP2,1st listing (r91),−1.0
same,Log2 fold-change of gene expression: Robo4,1st listing (r95),0.0
same,Log2 fold-change of gene expression: 151516,1st listing (r134),1.1
same,Log2 fold-change of gene expression: TNFAIP2,2nd listing (r92),−1.1
same,Log2 fold-change of gene expression: B2M,2nd listing (r97),−0.2
same,Log2 fold-change of gene expression: HPRT1,2nd listing (r98),0.0
same,Log2 fold-change of gene expression: RPL13A,2nd listing (r99),1.2
same,Log2 fold-change of gene expression: GADPH,2nd listing (r100),−0.8
same,Log2 fold-change of gene expression: ACTB,2nd listing (r101),−1.0
same,Log2 fold-change of gene expression: PLXDC1,2nd listing (r104),−1.7
same,Log2 fold-change of gene expression: 151516,2nd listing (r139),1.3
same,Log2 fold-change of gene expression: Robo4,2nd listing (r188),1.2
same,Log2 fold-change of gene expression: B2M,3rd listing (r145),−0.2
same,Log2 fold-change of gene expression: HPRT1,3rd listing (r146),−0.6
same,Log2 fold-change of gene expression: RPL13A,3rd listing (r147),0.9
same,Log2 fold-change of gene expression: GADPH,3rd listing (r148),−0.7
same,Log2 fold-change of gene expression: ACTB,3rd listing (r149),−0.5
same,Log2 fold-change of gene expression: B2M,4th listing (r193),0.3
same,Log2 fold-change of gene expression: HPRT1,4th listing (r194),−0.2
same,Log2 fold-change of gene expression: RPL13A,4th listing (r195),1.3
same,Log2 fold-change of gene expression: GADPH,4th listing (r196),−2.0
same,Log2 fold-change of gene expression: ACTB,4th listing (r197),−0.1
